Measurements reported in patent publication US20250034159A1, “INHIBITORS OF EPIDERMAL GROWTH FACTOR RECEPTOR” (ORIC Pharmaceuticals, Inc., priority 2021, published 2025).
Like-named read-outs stand apart in the source and are kept apart here.

How the values were obtained:
BaF3_EGFR LR/CS cells = assay: Biological Activity Assay D: BaF3 cell proliferation assay, EGFR L858R/C797S mutant (BaF3 LR/CS); type: cell-based; details: Ba/F3 EGFR, read-out: BaF3 LR/CS IC50
Procedure: (§1) One frozen vial of cells should be thawed into one T25 flask in 10 mL media. Keep the flask upright in the incubator.
(§2) Method: One frozen vial of cells was thawed into one T25 flask in 10 mL media and the flask was kept upright in the incubator. Cells were split 1:10 every two to three days when cells reached confluency of around 1×10^6 cells/mL. Bravo protocol files were used with Greiner 384-well plates for all steps of compound preparation, cell plating and compound addition. […] 16 μL of DMSO were added (for compounds starting at 20 μM) or 28 μL DMSO (for compounds starting at 5 μM) to 96-well V-bottom polypropylene plate: wells 1A-1H (8 compounds/plate). […] 20 μL DMSO were added to the remainder of the wells (columns 2-12) in the 96-well V-bottom plate. A Bravo liquid handler was used to make 1:3 serial dilutions from columns 1 to 11 (12 remains as DMSO only) to prepare the DMSO dilution plate. 144 μL media were added to each well of a new 96-well V-bottom polypropylene plate to prepare the intermediate dilution plate. A Bravo or 96-head Integra liquid handler was used to add and mix 6 μL of test compound from the DMSO dilution plate to the intermediate dilution plate. (1:25 dilution). Cells were transferred from a flask into a 50 mL conical, vortex gently and the number of cells were counted, with a target cell number of about 1×10^6 cells per mL. The cells were diluted in culture medium in 50 mL conical or T25 flask, and the cell suspension was added to BRAVO reservoir and then use Bravo protocol to plate the appropriate number of cells shown below in 36 μl of medium per well as follows: Ba/F3-WT-EGFR 2000 cells per well of a 384 well plate; Ba/F3-LR/CS-EGFR 2000 cells per well of a 384 well plate; and Ba/F3-d19/CS-EGFR 1500 cells per well of a 384 well plate. An extra 10 mL of dead volume was utilized in each reservoir.
(§3) Using a Bravo liquid handler, 4 μl of test compound solution was added per well from the intermediate dilution plate to plated cells (1:10 dilution from the intermediate plate, final compound dilution 1:250 and final DMSO concentration per well is 0.4%). Using the 96 BRAVO Head, 25 μl were aspirated from the intermediate dilution plate and 4 μl each were dispensed into 4 wells (square pattern) in the 384-well plate. Any remaining test compound is dispensed into a secondary plate to prevent cross contamination of cells in the intermediate compound plate. After the compounds were added, the plate was shaken at 600 rpm gently for 60 see, and the plates were incubated in a tissue culture incubator, 37° C., 5% CO2, for ˜ 72 hours. After incubation, CTG 2.0 reagent was allowed to equilibrate to room temperature (˜3 hours) and cells to reach room temperature (˜10-15 minutes) and reagent was added to cells (40 μL/well) using a Bravo liquid handler. The plates were shaken to allow proper mixing (˜5 min) and let settle for 10 minutes and were read on Tecan plate reader using the appropriate luminescence method. Data from plate reader was transferred to an excel file and entered directly into Dotmatics using the protocols under EGFR Project/Cell Proliferation/named: “BaF3_EGFRwt_CP”, “BaF3_EGFR_d19/CS_CP”, “BaF3_EGFR_LR/CS_CP”. Curves were fit with a 4-parameter model and IC50s calculated by the Dotmatics software. DMSO wells were averaged to define the high control (100% growth). The average of the highest concentration of the positive control compound (afatinib) was used to define the 0% growth and used to lock the bottom of the curves. The tops of the curves were not fixed.

Ba/F3_EGFR WT cells = assay: Biological Activity Assay D: BaF3 cell proliferation assay, EGFR wild-type (BaF3 WT); type: cell-based; details: Ba/F3 EGFR, read-out: BaF3 WT IC50
Procedure: as §1, §2, §3

[1] = target: recombinant human EGFR exon 19 deletion/C797S double mutant protein (Homo sapiens (Human), UniProt P00533, C797S/DEL746-750); assay: Biological Activity Assay C: biochemical assay against EGFR exon 19 deletion/C797S protein (EGFR d19/CS)
Sequence of recombinant human EGFR exon 19 deletion/C797S double mutant protein (P00533 other isoform, or with tags, fused parts or gaps C797S/del 1-668/del 746-750 limits assumed): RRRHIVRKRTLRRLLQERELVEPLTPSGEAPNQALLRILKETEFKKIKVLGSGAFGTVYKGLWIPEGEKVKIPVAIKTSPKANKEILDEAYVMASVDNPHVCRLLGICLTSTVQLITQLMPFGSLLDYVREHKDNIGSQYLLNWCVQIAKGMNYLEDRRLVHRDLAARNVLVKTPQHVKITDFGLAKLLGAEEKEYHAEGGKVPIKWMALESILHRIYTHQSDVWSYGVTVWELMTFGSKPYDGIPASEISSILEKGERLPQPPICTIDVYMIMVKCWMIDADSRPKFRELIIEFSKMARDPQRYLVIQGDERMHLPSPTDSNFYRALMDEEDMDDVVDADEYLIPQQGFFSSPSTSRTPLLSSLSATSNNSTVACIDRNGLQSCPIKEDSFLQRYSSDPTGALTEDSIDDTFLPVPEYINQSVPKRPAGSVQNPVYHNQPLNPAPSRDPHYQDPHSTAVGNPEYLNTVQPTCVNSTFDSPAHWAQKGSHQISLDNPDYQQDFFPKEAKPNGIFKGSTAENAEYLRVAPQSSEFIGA
Procedure: In Row A of a 384-well polypropylene plate, was added 48 μL of DMSO. In wells A1 and A24, were added 12 μL of DMSO. […] To a well in Row A were added 12 μL of each 10 mM test compound stock (100% DMSO). […] The final intermediate dilution plate contained 4×16-point compound serial dilutions in assay buffer. The DMSO concentration was 10%. The intermediate compound dilution plate was transferred to the Bravo and the “5 uL dispense into ARP.pro” protocol was run. To the black low volume assay ready plates, were added 5 μL of 40 uM Phosphosens peptide sensor/4 mM ATP working solution to each well. […] To column 24, was added 10 μL of assay buffer. The final DMSO concentration was 2.5%. […] The plates were sealed with the TopSeal-A Plus plate seals. […] Set for 90 cycles with 120 second interval. […] The slope of each curve was constructed using Dotmatics in each well, and each IC50s was calculated using a 4-parameter fit model.

BaF3_EGFR d19/CS cells = assay: Biological Activity Assay D: BaF3 cell proliferation assay, EGFR exon 19 deletion/C797S (BaF3 d19/CS); type: cell-based; details: Ba/F3 EGFR, read-out: BaF3 d19/CS IC50
Procedure: as §1, §2, §3

[2] = BaF3_EGFR LR/CS cells, ~72 hours, CellTiter-Glo
[3] = Ba/F3_EGFR WT cells, ~72 hours, CellTiter-Glo
[4] = BaF3_EGFR d19/CS cells, ~72 hours, CellTiter-Glo

Row | Compound | IC50 (BaF3_EGFR LR/CS cells; [2]) | IC50 (Ba/F3_EGFR WT cells; [3]) | IC50 [1] | IC50 (BaF3_EGFR d19/CS cells; [4]) | IC50 (BaF3_EGFR LR/CS cells; 72 h) | IC50 (Ba/F3_EGFR WT cells; 72 h) | IC50 (BaF3_EGFR d19/CS cells; 72 h)
1 | O[C@H]1C[C@H](n2cc(-c3ncnc4oc(-c5ccccc5)cc34)c(-c3ccc(F)cc3)n2)C1 [Example 121, (1r,3r)-3-(3-(4-Fluorophenyl)-4-(6-phenylfuro[2,3-d]pyrimidin-4-yl)-1H-pyrazol-1-yl)cyclobutan-1-ol] | 12.6 nM | 1180 nM | 0.14 nM | 29.8 nM | – | – | –
2 | Fc1ccc(-c2nn(CC3CC(F)(F)C3)cc2-c2ncnc3oc(-c4ccccc4)cc23)cc1 [Example 123, 4-{1-[(3,3-difluorocyclobutyl)methyl]-3-(4-fluorophenyl)-1H-pyrazol-4-yl}-6-phenylfuro[2,3-d]pyrimidine] | 96.1 nM | 3890 nM | 2.89 nM | 260 nM | – | – | –
3 | Fc1ccc(-c2nn(C[C@H]3C[C@H](F)C3)cc2-c2ncnc3oc(-c4ccccc4)cc23)cc1 [Example 124, 4-[1-{[(1r,3r)-3-fluorocyclobutyl]methyl}-3-(4-fluorophenyl)-1H-pyrazol-4-yl]-6-phenylfuro[2,3-d]pyrimidine] | 230 nM | 4270 nM | 3.02 nM | 611 nM | – | – | –
4 | O=S1(=O)CC(n2cc(-c3ncnc4[nH]c(-c5ccccc5)nc34)c(-c3ccc(F)cc3)n2)C1 [Example 127, 3-[3-(4-Fluorophenyl)-4-(8-phenyl-9H-purin-6-yl)-1H-pyrazol-1-yl]-1λ6-thietane-1,1-dione] | 15.8 nM | 3680 nM | 0.09 nM | 24.6 nM | – | – | –
5 | CC(C)(O)Cn1cc(-c2ncnc3[nH]c(-c4ccccc4)nc23)c(-c2ccc(F)cc2)n1 [Example 130, 1-[3-(4-Fluorophenyl)-4-(8-phenyl-9H-purin-6-yl)-1H-pyrazol-1-yl]-2-methylpropan-2-ol] | 10.1 nM | 2340 nM | 0.12 nM | 12 nM | – | – | –
6 | CS(=O)(=O)CCn1cc(-c2ncnc3[nH]c(-c4ccccc4)nc23)c(-c2ccc(F)cc2)n1 [Example 131, 6-{3-(4-fluorophenyl)-1-[2-(methanesulfonyl)ethyl]-1H-pyrazol-4-yl}-8-phenyl-9H-purine] | 81.9 nM | 3000 nM | 1.04 nM | 162 nM | – | – | –
7 | CC(C)(C)OC(=O)N1CC(C#Cc2cc3c(-c4cn(C5CS(=O)(=O)C5)nc4-c4ccc(F)cc4)ncnc3o2)C1 [Example 132, tert-butyl 3-({4-[1-(1,1-dioxo-1λ6-thietan-3-yl)-3-(4-fluorophenyl)-1H-pyrazol-4-yl]furo[2,3-d]pyrimidin-6-yl}ethynyl)azetidine-1-carboxylate] | 1160 nM | 5490 nM | 1.51 nM | 860 nM | – | – | –
8 | O=S1(=O)CC(n2cc(-c3ncnc4oc(C#CC5CNC5)cc34)c(-c3ccc(F)cc3)n2)C1 [Example 133, 3-[4-{6-[(azetidin-3-yl)ethynyl]furo[2,3-d]pyrimidin-4-yl}-3-(4-fluorophenyl)-1H-pyrazol-1-yl]-1λ6-thietane-1,1-dione] | 2190 nM | 7550 nM | 7.1 nM | 1190 nM | – | – | –
9 | CC(=O)NCCn1cc(-c2ncnc3oc(-c4ccccc4)cc23)c(-c2ccc(F)cc2)n1 [Example 134, N-{2-[3-(4-Fluorophenyl)-4-(6-phenylfuro[2,3-d]pyrimidin-4-yl)-1H-pyrazol-1-yl]ethyl}acetamide] | – | – | 0.3 nM | – | 33.3 nM | 1030 nM | 57.1 nM
10 | FCCn1cc(-c2ncnc3oc(-c4ccccc4)cc23)c(-c2ccc(F)cc2)n1 [Example 135, 4-[1-(2-Fluoroethyl)-3-(4-fluorophenyl)-1H-pyrazol-4-yl]-6-phenylfuro[2,3-d]pyrimidine] | 17.1 nM | 1160 nM | 0.33 nM | 31.9 nM | – | – | –
11 | CC(=O)N1CC=C(c2cc3c(-c4cn(CC(C)(C)O)nc4-c4ccc(F)cc4)ncnc3o2)CC1 [Example 138, 1-[4-{4-[3-(4-Fluorophenyl)-1-(2-hydroxy-2-methylpropyl)-1H-pyrazol-4-yl]furo[2,3-d]pyrimidin-6-yl}-3,6-dihydropyridin-1 (2H)-yl]ethan-1-one] | 94.4 nM | 1390 nM | 0.5 nM | 63.7 nM | – | – | –
12 | CC(C)(C)OC(=O)N1C=C(c2cc3c(-c4cn(C5CS(=O)(=O)C5)nc4-c4ccc(F)cc4)ncnc3o2)CCC1 [Example 139, tert-butyl 5-{4-[1-(1,1-dioxo-1λ6-thietan-3-yl)-3-(4-fluorophenyl)-1H-pyrazol-4-yl]furo[2,3-d]pyrimidin-6-yl}-3,4-dihydropyridine-1(2H)-carboxylate] | 574 nM | 10300 nM | 8.55 nM | 551 nM | – | – | –
13 | CC(=O)N1CC(C#Cc2cc3c(-c4cn(C5CS(=O)(=O)C5)nc4-c4ccc(F)cc4)ncnc3o2)C1 [Example 140, 3-[4-{6-[(1-Acetylazetidin-3-yl)ethynyl]furo[2,3-d]pyrimidin-4-yl}-3-(4-fluorophenyl)-1H-pyrazol-1-yl]-16-thietane-1,1-dione] | 1630 nM | 5680 nM | 3.32 nM | 916 nM | – | – | –
14 | CC(=O)NCCCn1cc(-c2ncnc3oc(-c4ccccc4)cc23)c(-c2ccc(F)cc2)n1 [Example 141, N-{3-[3-(4-Fluorophenyl)-4-(6-phenylfuro[2,3-d]pyrimidin-4-yl)-1H-pyrazol-1-yl]propyl}acetamide] | – | – | 0.25 nM | – | 43.6 nM | 921 nM | 66.1 nM
15 | Fc1ccc(-c2nn(C3CCC(F)(F)CC3)cc2-c2ncnc3oc(-c4ccccc4)cc23)cc1 [Example 142, 4-[1-(4,4-difluorocyclohexyl)-3-(4-fluorophenyl)-1H-pyrazol-4-yl]-6-phenylfuro[2,3-d]pyrimidine] | 313 nM | 6070 nM | 5.19 nM | 398 nM | – | – | –
16 | CNC(=O)Cn1cc(-c2ncnc3oc(-c4ccccc4)cc23)c(-c2ccc(F)cc2)n1 [Example 143, 2-[3-(4-Fluorophenyl)-4-(6-phenylfuro[2,3-d]pyrimidin-4-yl)-1H-pyrazol-1-yl]-N-methylacetamide] | 59.8 nM | 663 nM | 0.38 nM | 94.3 nM | – | – | –
17 | CC(C)(O)CCn1cc(-c2ncnc3[nH]c(-c4ccccc4)nc23)c(-c2ccc(F)cc2)n1 [Example 145, 4-[3-(4-fluorophenyl)-4-(8-phenyl-9H-purin-6-yl)-1H-pyrazol-1-yl]-2-methylbutan-2-ol] | 83.6 nM | 3210 nM | 0.55 nM | 114 nM | – | – | –
